From patent publication US20090247559A1 (Exelixis, Inc., priority 2007, published 2009)
Counter-ions that a name gives are not always drawn. Like-named read-outs stand apart in the source and are kept apart here.

Key:
[1] = target: CDC7 (Homo sapiens, UniProt O00311); assay: CDC7 inhibition, biochemical chemiluminescence assay (Kinase Glo, IC50 determination)
In short: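 CDC7 enzyme preincubated with compound 10 min at ambient temperature, then ATP mix in Tris Base added; reaction 90 min at 24-27 °C. Remaining ATP quantified by Kinase Glo luminescence to give IC50.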

[2] = target: PIM (PIM-1, PIM-2, and/or PIM-3); assay: PIM-1, PIM-2 and PIM-3 inhibition, biochemical chemiluminescence assays (Kinase Glo, IC50 determination); conditions: Table 1 activity class; PIM refers to PIM-1, PIM-2, and/or PIM-3; read-out: PIM IC50 (Activity B)
[3] = target: CK2 (Homo sapiens, UniProt P68400); assay: CK2 inhibition, biochemical chemiluminescence holoenzyme assay (Kinase Glo, IC50 determination); conditions: Table 1 activity class; symbol given only if active; read-out: CK2 IC50 (Activity C)
Chain of CK2 (P68400 whole entry): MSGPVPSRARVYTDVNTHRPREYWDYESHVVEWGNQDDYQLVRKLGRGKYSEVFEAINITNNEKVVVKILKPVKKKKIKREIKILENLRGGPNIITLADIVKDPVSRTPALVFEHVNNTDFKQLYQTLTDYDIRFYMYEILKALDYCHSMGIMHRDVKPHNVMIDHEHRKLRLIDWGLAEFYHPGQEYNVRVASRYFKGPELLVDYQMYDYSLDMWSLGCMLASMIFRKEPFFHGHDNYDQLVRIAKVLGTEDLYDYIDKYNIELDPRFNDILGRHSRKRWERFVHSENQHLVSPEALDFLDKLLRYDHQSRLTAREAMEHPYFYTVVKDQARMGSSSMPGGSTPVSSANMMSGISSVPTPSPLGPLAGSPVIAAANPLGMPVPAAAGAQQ
Chain of CK2 (P67870 whole entry partner): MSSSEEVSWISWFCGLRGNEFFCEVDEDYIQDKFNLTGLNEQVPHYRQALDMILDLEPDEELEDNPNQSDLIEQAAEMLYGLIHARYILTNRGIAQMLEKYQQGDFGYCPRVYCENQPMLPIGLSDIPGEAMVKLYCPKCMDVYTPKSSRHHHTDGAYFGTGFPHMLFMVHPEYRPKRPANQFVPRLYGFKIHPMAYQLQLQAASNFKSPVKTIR
In short: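 Holoenzyme CK2 assay; compounds pre-incubated with substrate and enzyme, then reacted 150 min at 24-27° C. Remaining ATP measured as luminescence with Kinase Glo, and IC50 derived from the signal.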

[4] = Table 1 activity class, symbol given only if active, read-out: CDC7 IC50 (Activity A)
[5] = CDC7 IC50 (Activity A), Table 1 activity class, symbol given only if active
[6] = CDC7 IC50 value, compounds in Table 1
[7] = compounds in Table 1, read-out: CDC7 IC50 value

Chain of CDC7 (O00311 whole entry): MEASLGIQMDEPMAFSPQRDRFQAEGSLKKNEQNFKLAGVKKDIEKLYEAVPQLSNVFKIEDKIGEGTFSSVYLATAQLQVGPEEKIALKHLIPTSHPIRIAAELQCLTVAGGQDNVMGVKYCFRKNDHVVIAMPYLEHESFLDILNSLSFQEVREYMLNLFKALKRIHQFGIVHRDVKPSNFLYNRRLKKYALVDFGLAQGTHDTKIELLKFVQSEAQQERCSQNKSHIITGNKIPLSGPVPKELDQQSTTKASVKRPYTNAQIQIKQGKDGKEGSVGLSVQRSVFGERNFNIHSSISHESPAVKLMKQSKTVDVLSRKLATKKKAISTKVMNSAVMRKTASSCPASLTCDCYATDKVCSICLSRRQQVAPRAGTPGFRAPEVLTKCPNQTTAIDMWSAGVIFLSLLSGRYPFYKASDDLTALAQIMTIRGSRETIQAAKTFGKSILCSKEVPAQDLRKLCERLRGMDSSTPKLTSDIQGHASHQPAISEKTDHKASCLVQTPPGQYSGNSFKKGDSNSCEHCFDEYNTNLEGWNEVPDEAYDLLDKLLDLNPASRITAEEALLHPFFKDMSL
Chain of CDC7 (Q9UBU7 whole entry partner): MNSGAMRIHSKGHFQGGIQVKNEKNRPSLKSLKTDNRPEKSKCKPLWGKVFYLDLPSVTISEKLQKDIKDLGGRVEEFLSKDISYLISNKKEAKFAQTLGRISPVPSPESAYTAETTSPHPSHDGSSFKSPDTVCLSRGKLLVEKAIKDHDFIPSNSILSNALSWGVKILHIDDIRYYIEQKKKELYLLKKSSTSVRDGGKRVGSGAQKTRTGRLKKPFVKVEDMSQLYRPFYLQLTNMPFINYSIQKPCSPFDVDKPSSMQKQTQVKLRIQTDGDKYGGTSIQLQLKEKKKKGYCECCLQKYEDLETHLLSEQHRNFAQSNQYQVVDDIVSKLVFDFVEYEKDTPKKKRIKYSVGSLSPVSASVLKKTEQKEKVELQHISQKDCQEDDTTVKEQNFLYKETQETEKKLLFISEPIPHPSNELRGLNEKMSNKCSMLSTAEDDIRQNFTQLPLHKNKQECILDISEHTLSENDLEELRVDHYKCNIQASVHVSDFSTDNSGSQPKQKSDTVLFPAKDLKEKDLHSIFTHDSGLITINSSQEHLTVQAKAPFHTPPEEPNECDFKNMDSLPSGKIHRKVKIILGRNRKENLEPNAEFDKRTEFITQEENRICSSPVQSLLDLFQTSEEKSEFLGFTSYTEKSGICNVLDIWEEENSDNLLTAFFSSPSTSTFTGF

| Compound | IC50 [1, 4] [µM] | IC50 [2] [µM] | IC50 [3] [µM] | IC50 [1, 5] [µM] | IC50 [1, 6] [µM] | IC50 [1, 7] [µM] |
| --- | --- | --- | --- | --- | --- | --- |
| O=c1[nH]c(C2CCCO2)nc2c1oc1ccc(Br)cc12 (centres unmarked) [Compound 499, 8-bromo-2-(tetrahydrofuran-2-yl)[1]benzofuro[3,2-d]pyrimidin-4(3H)-one] | < 10 | < 10 | < 10 | – | – | – |
| O=c1[nH]c([C@@H]2CSCN2)nc2c1oc1ccc(Br)cc12 [Compound 500, 8-bromo-2-[(4R)-1,3-thiazolidin-4-yl][1]benzofuro[3,2-d]pyrimidin-4(3H)-one] | < 10 | < 10 | < 10 | – | – | – |
| O=c1[nH]c([C@@H]2CC3CCCCC3N2)nc2c1oc1ccc(Br)cc12 (stereo partly drawn) [Compound 501, 8-bromo-2-[(2S)-octahydro-1H-indol-2-yl][1]benzofuro[3,2-d]pyrimidin-4(3H)-one] | – | < 10 | < 10 | < 10 | < 0.1 | – |
| CCC(CC)NCc1nc2c(oc3ccc(Br)cc32)c(=O)[nH]1 [Compound 502, 8-bromo-2-{[(1-ethylpropyl)amino]methyl}[1]benzofuro[3,2-d]pyrimidin-4(3H)-one] | < 10 | < 10 | < 10 | – | – | < 0.1 |
| CC(C)(C)NCc1nc2c(oc3ccc(Br)cc32)c(=O)[nH]1 [Compound 503, 8-bromo-2-{[(1,1-dimethylethyl)amino]methyl}[1]benzofuro[3,2-d]pyrimidin-4(3H)-one] | < 10 | < 10 | < 10 | – | – | < 0.1 |
| O=c1[nH]c(CNC2CCCCC2)nc2c1oc1ccc(Br)cc12 [Compound 504, 8-bromo-2-[(cyclohexylamino)methyl][1]benzofuro[3,2-d]pyrimidin-4(3H)-one] | < 10 | < 10 | < 10 | – | – | – |
| O=c1[nH]c([C@@H]2C=CCN2)nc2c1oc1ccc(Br)cc12 [Compound 505, 8-bromo-2-[(2S)-2,5-dihydro-1H-pyrrol-2-yl][1]benzofuro[3,2-d]pyrimidin-4(3H)-one] | < 10 | < 10 | < 10 | – | – | < 0.1 |
| O=c1[nH]c([C@@H]2CCCN2)nc2c1oc1ccccc12 [Compound 506, 2-[(2S)-pyrrolidin-2-yl][1]benzofuro[3,2-d]pyrimidin-4(3H)-one] | < 10 | < 10 | < 10 | – | – | – |
| O=c1[nH]c([C@@H]2CCCN2)nc2c1oc1ccc(Cl)cc12 [Compound 507, 8-Chloro-2-[(2S)-pyrrolidin-2-yl][1]benzofuro[3,2-d]pyrimidin-4(3H)-one Hydrochloride] | < 10 | < 10 | < 10 | – | – | < 0.1 |
| CC(c1nc2c(oc3ccc(Br)cc32)c(=O)[nH]1)N1CC[C@H](O)C1 (stereo partly drawn) [Compound 508, 8-bromo-2-{1-[(3S)-3-hydroxypyrrolidin-1-yl]ethyl}[1]benzofuro[3,2-d]pyrimidin-4(3H)-one] | < 10 | < 10 | < 10 | – | – | < 0.1 |
| O=c1[nH]c([C@@H]2CCN2)nc2c1oc1ccc(Br)cc12 [Compound 509, 2-[(2S)-azetidin-2-yl]-8-bromo[1]benzofuro[3,2-d]pyrimidin-4(3H)-one] | < 10 | < 10 | < 10 | – | – | < 0.1 |
| O=c1[nH]c([C@@H]2Cc3ccccc3N2)nc2c1oc1ccc(Br)cc12 [Compound 510, 8-bromo-2-[(2S)-2,3-dihydro-1H-indol-2-yl][1]benzofuro[3,2-d]pyrimidin-4(3H)-one] | < 10 | < 10 | < 10 | – | – | – |
| O=c1[nH]c([C@@H]2C[C@H](O)CN2)nc2c1oc1ccc(Br)cc12 [Compound 511, 8-bromo-2-[(2S,4S)-4-hydroxypyrrolidin-2-yl][1]benzofuro[3,2-d]pyrimidin-4(3H)-one] | < 10 | < 10 | < 10 | – | – | < 0.1 |
| O=c1[nH]c([C@@H]2CC(F)(F)CN2)nc2c1oc1ccc(Br)cc12 [Compound 512, 8-bromo-2-[(2S)-4,4-difluoropyrrolidin-2-yl][1]benzofuro[3,2-d]pyrimidin-4(3H)-one] | < 10 | < 10 | < 10 | – | – | < 0.1 |
| O=c1[nH]c([C@@H]2C[C@H](F)CN2)nc2c1oc1ccc(Br)cc12 [Compound 513, 8-bromo-2-[(2S,4S)-4-fluoropyrrolidin-2-yl][1]benzofuro[3,2-d]pyrimidin-4(3H)-one] | < 10 | < 10 | < 10 | – | – | < 0.1 |
| O=c1[nH]c([C@@H]2C[C@@H](F)CN2)nc2c1oc1ccc(Br)cc12 [Compound 514, 8-bromo-2-[(2S,4R)-4-fluoropyrrolidin-2-yl][1]benzofuro[3,2-d]pyrimidin-4(3H)-one] | < 10 | < 10 | < 10 | – | – | < 0.1 |

| Compound | IC50 [1, 4] [µM] | IC50 [2] [µM] | IC50 [3] [µM] | IC50 [1, 5] [µM] | IC50 [1, 6] [µM] | IC50 [1, 7] [µM] |
| --- | --- | --- | --- | --- | --- | --- |
| CC1(C)CC[C@@H](c2nc3c(oc4ccc(Br)cc43)c(=O)[nH]2)N1 [Compound 515, 8-bromo-2-[(2S)-5,5-dimethylpyrrolidin-2-yl][1]benzofuro[3,2-d]pyrimidin-4(3H)-one] | < 10 | < 10 | < 10 | – | – | < 0.1 |
| CNCc1nc2c(oc3ccc(Br)cc32)c(=O)[nH]1 [Compound 516, 8-bromo-2-[(methylamino)methyl][1]benzofuro[3,2-d]pyrimidin-4(3H)-one] | < 10 | < 10 | < 10 | – | – | < 0.1 |
| CN(C)Cc1nc2c(oc3ccc(Br)cc32)c(=O)[nH]1 [Compound 517, 8-bromo-2-[(dimethylamino)methyl][1]benzofuro[3,2-d]pyrimidin-4(3H)-one] | < 10 | < 10 | < 10 | – | – | < 0.1 |
| CCC(C)N(C)Cc1nc2c(oc3ccc(Br)cc32)c(=O)[nH]1 (centres unmarked) [Compound 518, 8-bromo-2-{[methyl(1-methylpropyl)amino]methyl}[1]benzofuro[3,2-d]pyrimidin-4(3H)-one] | < 10 | < 10 | < 10 | – | – | < 0.1 |
| CC[C@@H](C)NCc1nc2c(oc3ccc(Br)cc32)c(=O)[nH]1 [Compound 519, 8-bromo-2-({[(1R)-1-methylpropyl]amino}methyl)[1]benzofuro[3,2-d]pyrimidin-4(3H)-one] | < 10 | < 10 | < 10 | – | – | < 0.1 |
| O=c1[nH]c(CN2CC3CCC2C3)nc2c1oc1ccc(Br)cc12 (centres unmarked) [Compound 520, 2-(2-azabicyclo[2.2.1]hept-2-ylmethyl)-8-bromo[1]benzofuro[3,2-d]pyrimidin-4(3H)-one] | – | < 10 | < 10 | < 10 | < 0.1 | – |
| O=c1[nH]c(CNC2CC2)nc2c1oc1ccc(Br)cc12 [Compound 521, 8-bromo-2-[(cyclopropylamino)methyl][1]benzofuro[3,2-d]pyrimidin-4(3H)-one] | < 10 | < 10 | < 10 | – | – | < 0.1 |
| CC[C@H](C)NCc1nc2c(oc3ccc(Br)cc32)c(=O)[nH]1 [Compound 522, 8-bromo-2-({[(1S)-1-methylpropyl]amino}methyl)[1]benzofuro[3,2-d]pyrimidin-4(3H)-one] | < 10 | < 10 | < 10 | – | – | < 0.1 |
| O=C1CC[C@@H](c2nc3c(oc4ccc(Br)cc43)c(=O)[nH]2)N1 [Compound 523, 8-bromo-2-[(2S)-5-oxopyrrolidin-2-yl][1]benzofuro[3,2-d]pyrimidin-4(3H)-one] | < 10 | < 10 | < 10 | – | – | < 0.1 |
| O=c1[nH]c([C@@H]2C[C@@H](F)CN2)nc2c1oc1ccc(Cl)cc12 [Compound 526, 8-chloro-2-[(2S,4R)-4-fluoropyrrolidin-2-yl][1]benzofuro[3,2-d]pyrimidin-4(3H)-one] | < 10 | < 10 | < 10 | – | – | < 0.1 |
| CN1CCC[C@H]1c1nc2c(oc3ccc(Br)cc32)c(=O)[nH]1 [Compound 527, 8-Bromo-2-[(2S)-1-methylpyrrolidin-2-yl][1]benzofuro[3,2-d]pyrimidin-4(3H)-one hydrochloride] | < 10 | < 10 | < 10 | – | – | < 0.1 |
| O=c1[nH]c([C@@H]2C[C@H](O)CN2)nc2c1oc1ccc(Cl)cc12 [Compound 528, 8-chloro-2-[(2S,4S)-4-hydroxypyrrolidin-2-yl][1]benzofuro[3,2-d]pyrimidin-4(3H)-one] | < 10 | < 10 | < 10 | – | – | < 0.1 |
| O=c1[nH]c([C@@H]2CC3CCCCC3N2)nc2c1oc1ccc(Cl)cc12 (stereo partly drawn) [Compound 529, 8-chloro-2-[(2S)-octahydro-1H-indol-2-yl][1]benzofuro[3,2-d]pyrimidin-4(3H)-one] | – | < 10 | < 10 | < 10 | < 0.1 | – |
| COc1ccc2oc3c(=O)[nH]c([C@@H]4CC(F)(F)CN4)nc3c2c1 [Compound 531, 2-[(2S)-4,4-difluoropyrrolidin-2-yl]-8-(methyloxy)[1]benzofuro[3,2-d]pyrimidin-4(3H)-one] | < 10 | < 10 | < 10 | – | – | < 0.1 |
| COc1ccc2oc3c(=O)[nH]c([C@@H]4C[C@@H](F)CN4)nc3c2c1 [Compound 532, 2-[(2S,4R)-4-fluoropyrrolidin-2-yl]-8-(methyloxy)[1]benzofuro[3,2-d]pyrimidin-4(3H)-one] | < 10 | < 10 | < 10 | – | – | < 0.1 |
